Measurements published in patent US20230248626A1, “Compositions Comprising (Bio)-Alkanediols” (Symrise AG, priority 0001, published 2023).
Values after ≈ are worked out from the molar mass of the structure shown.

Tests used:
Assay type in all cases: cell-based
[1] = test system: Staphylococcus aureus (SA); experiment: Preservation efficacy test (PET), European Pharmacopoeia 5.1.3
Experimental: (§1) The preservation efficacy test (PET) was performed in accordance with European Pharmacopoeia § 5.1.3: The test is a reference European Pharmacopoeia method, that is to be used to evaluate the preservation system of a cosmetic or pharmaceutical preparation. The test consists of challenging the preparation under test, with prescribed inoculums of suitable microorganisms. The preservation porperties of the preparation are adequate if, in the conditions of the test, there is a significant fall or no increase, as appropriate, in the number of microorganisms in the inoculated preparations after the time prescribed.
(§2) The test microorganisms which were used, are the following:
(§3) Pseudomonas aeruginosa (PA) (bacterium); Staphylococcus aureus (SA) (bacterium); Escherichia coli (EC) (bacterium); Candida albicans (CA) (yeast); and Aspergillus brasiliensis (AB) (fungus).

[2] = test system: Escherichia coli (EC); experiment: as above
Experimental: as §1, §2, §3

[3] = test system: Candida albicans (CA); experiment: as above
Experimental: as §1, §2, §3

[4] = test system: Aspergillus brasiliensis (AB); experiment: as above
Experimental: as §1, §2, §3

[5] = test system: Pseudomonas aeruginosa (PA); experiment: as above
Experimental: as §1, §2, §3

[6] = test system: Aspergillus brasiliensis; experiment: MIC and Kull synergy index of 1,2-/2,3-alkanediol mixtures; conditions: single 2,3-alkanediol, read-out: MIC Component B
[7] = test system: Corynebacterium jeikeium; experiment: MIC test (growth inhibition, 96 well plates, OD); conditions: read-out: Minimum Inhibitory Concentration (MIC)
Experimental: (§4) The MIC test is a test on growth inhibition. Estimation of Minimum Inhibitory Concentration (MIC) is executed in 96 well plates. Through the comparison of bacterial growth with positive and negative controls via optical density (OD), different concentrations of given test substances are evaluated.
(§5) Bacteria are cultivated under adjusted conditions based on information of the German Collection of Microorganisms and Cell Cultures (DSMZ) and stored in 50% Glycerol prior to use. Afterwards, the following method was applied: Adding growth medium (according to microorganism) to each well of the microplate. Adding the test-substances in different concentrations, positive controls (water controls only with medium) and negative controls (benchmarks according to organism). Adding the microorganism in a concentration of 10^6 CFU/ml (CFU=colony forming units). Incubation of the microplates at appropriate conditions.
(§6) According to resulting growth, substance concentrations are labelled either as inhibiting or not and MIC is defined as the lowest concentration where a complete growth inhibition is visible. Experiments at concentration limits (highest concentration labelled as growth and lowest concentration labelled as inhibiting) are performed at least twice.

[8] = test system: Candida albicans; experiment: MIC test (growth inhibition, 96 well plates, OD); conditions: read-out: Minimum Inhibitory Concentration (MIC)
Experimental: as §4, §5, §6

[9] = test system: Escherichia coli; experiment: MIC test (growth inhibition, 96 well plates, OD); conditions: read-out: Minimum Inhibitory Concentration (MIC)
Experimental: as §4, §5, §6

[10] = test system: Staphylococcus hominis; experiment: MIC test (growth inhibition, 96 well plates, OD); conditions: read-out: Minimum Inhibitory Concentration (MIC)
Experimental: as §4, §5, §6

[11] = test system: Propionibacterium acnes; experiment: MIC test (growth inhibition, 96 well plates, OD); conditions: Cutibacterium acnes; read-out: Minimum Inhibitory Concentration (MIC)
Experimental: as §4, §5, §6

[12] = test system: Staphylococcus aureus; experiment: MIC test (growth inhibition, 96 well plates, OD); conditions: read-out: Minimum Inhibitory Concentration (MIC)
Experimental: as §4, §5, §6

Structure (SMILES): CCCCCC(O)C(C)O (stereo not drawn) [2,3-octanediol]
- number of microorganisms after 2 days ([1]; 0.1% in shampoo): 2,000
- number of microorganisms after 7 days ([1]; 0.1% in shampoo): 1
- number of microorganisms after 14 days ([1]; 0.1% in shampoo): 1
- number of microorganisms after 28 days ([1]; 0.1% in shampoo): 1
- number of microorganisms after 2 days ([1]; 0.1% in wet wipes solution): 50
- number of microorganisms after 7 days ([1]; 0.1% in wet wipes solution): 50
- number of microorganisms after 14 days ([1]; 0.1% in wet wipes solution): 50
- number of microorganisms after 28 days ([1]; 0.1% in wet wipes solution): 50
- number of microorganisms after 2 days ([1]; 0.2% in o/w emulsion): 1,300,000
- number of microorganisms after 7 days ([1]; 0.2% in o/w emulsion): 84,000
- number of microorganisms after 14 days ([1]; 0.2% in o/w emulsion): 1
- number of microorganisms after 28 days ([1]; 0.2% in o/w emulsion): 1
- number of microorganisms after 2 days ([1]; 0.4% in shampoo): 4,000
- number of microorganisms after 7 days ([1]; 0.4% in shampoo): 1
- number of microorganisms after 14 days ([1]; 0.4% in shampoo): 1
- number of microorganisms after 28 days ([1]; 0.4% in shampoo): 1
- number of microorganisms after 2 days ([2]; 0.1% in shampoo): 2,600,000
- number of microorganisms after 7 days ([2]; 0.1% in shampoo): 3,800,000
- number of microorganisms after 14 days ([2]; 0.1% in shampoo): 1,500,000
- number of microorganisms after 28 days ([2]; 0.1% in shampoo): 1,300,000
- number of microorganisms after 2 days ([2]; 0.1% in wet wipes solution): 1,300,000
- number of microorganisms after 7 days ([2]; 0.1% in wet wipes solution): 2,600,000
- number of microorganisms after 14 days ([2]; 0.1% in wet wipes solution): 850,000
- number of microorganisms after 28 days ([2]; 0.1% in wet wipes solution): 1,600
- number of microorganisms after 2 days ([2]; 0.2% in o/w emulsion): 48,000
- number of microorganisms after 7 days ([2]; 0.2% in o/w emulsion): 290
- number of microorganisms after 14 days ([2]; 0.2% in o/w emulsion): 1
- number of microorganisms after 28 days ([2]; 0.2% in o/w emulsion): 1
- number of microorganisms after 2 days ([2]; 0.4% in shampoo): 1,100,000
- number of microorganisms after 7 days ([2]; 0.4% in shampoo): 1,900,000
- number of microorganisms after 14 days ([2]; 0.4% in shampoo): 2,100,000
- number of microorganisms after 28 days ([2]; 0.4% in shampoo): 600,000
- number of microorganisms after 2 days ([3]; 0.1% in shampoo): 200,000
- number of microorganisms after 7 days ([3]; 0.1% in shampoo): 19,000
- number of microorganisms after 14 days ([3]; 0.1% in shampoo): 390
- number of microorganisms after 28 days ([3]; 0.1% in shampoo): 1
- number of microorganisms after 2 days ([3]; 0.1% in wet wipes solution): 5,000,000
- number of microorganisms after 7 days ([3]; 0.1% in wet wipes solution): 2,400,000
- number of microorganisms after 14 days ([3]; 0.1% in wet wipes solution): 6,900,000
- number of microorganisms after 28 days ([3]; 0.1% in wet wipes solution): 5,500,000
- number of microorganisms after 2 days ([3]; 0.2% in o/w emulsion): 2,000,000
- number of microorganisms after 7 days ([3]; 0.2% in o/w emulsion): 1,800,000
- number of microorganisms after 14 days ([3]; 0.2% in o/w emulsion): 1,900,000
- number of microorganisms after 28 days ([3]; 0.2% in o/w emulsion): 390,000
- number of microorganisms after 2 days ([3]; 0.4% in shampoo): 44,000
- number of microorganisms after 7 days ([3]; 0.4% in shampoo): 17,000
- number of microorganisms after 14 days ([3]; 0.4% in shampoo): 510
- number of microorganisms after 28 days ([3]; 0.4% in shampoo): 1
- number of microorganisms after 2 days ([4]; 0.1% in shampoo): 2,300,000
- number of microorganisms after 7 days ([4]; 0.1% in shampoo): 1,300,000
- number of microorganisms after 14 days ([4]; 0.1% in shampoo): 250,000
- number of microorganisms after 28 days ([4]; 0.1% in shampoo): 250,000
- number of microorganisms after 2 days ([4]; 0.1% in wet wipes solution): 12,000,000
- number of microorganisms after 7 days ([4]; 0.1% in wet wipes solution): 8,500,000
- number of microorganisms after 14 days ([4]; 0.1% in wet wipes solution): 9,300,000
- number of microorganisms after 28 days ([4]; 0.1% in wet wipes solution): 12,000,000
- number of microorganisms after 2 days ([4]; 0.2% in o/w emulsion): 1,700,000
- number of microorganisms after 7 days ([4]; 0.2% in o/w emulsion): 2,000,000
- number of microorganisms after 14 days ([4]; 0.2% in o/w emulsion): 2,100,000
- number of microorganisms after 28 days ([4]; 0.2% in o/w emulsion): 2,000,000
- number of microorganisms after 2 days ([4]; 0.4% in shampoo): 1,100,000
- number of microorganisms after 7 days ([4]; 0.4% in shampoo): 1,100,000
- number of microorganisms after 14 days ([4]; 0.4% in shampoo): 2,100,000
- number of microorganisms after 28 days ([4]; 0.4% in shampoo): 410,000
- number of microorganisms after 2 days ([5]; 0.1% in shampoo): 280,000
- number of microorganisms after 7 days ([5]; 0.1% in shampoo): 3,700,000
- number of microorganisms after 14 days ([5]; 0.1% in shampoo): 13,000,000
- number of microorganisms after 28 days ([5]; 0.1% in shampoo): 8,100,000
- number of microorganisms after 2 days ([5]; 0.1% in wet wipes solution): 1,300,000
- number of microorganisms after 7 days ([5]; 0.1% in wet wipes solution): 630,000
- number of microorganisms after 14 days ([5]; 0.1% in wet wipes solution): 310,000
- number of microorganisms after 28 days ([5]; 0.1% in wet wipes solution): 27,000
- number of microorganisms after 2 days ([5]; 0.2% in o/w emulsion): 1
- number of microorganisms after 7 days ([5]; 0.2% in o/w emulsion): 1
- number of microorganisms after 14 days ([5]; 0.2% in o/w emulsion): 1
- number of microorganisms after 28 days ([5]; 0.2% in o/w emulsion): 1
- number of microorganisms after 2 days ([5]; 0.4% in shampoo): 21,000
- number of microorganisms after 7 days ([5]; 0.4% in shampoo): 1
- number of microorganisms after 14 days ([5]; 0.4% in shampoo): 1
- number of microorganisms after 28 days ([5]; 0.4% in shampoo): 1
- MIC [6]: 2500 µg/mL
- MIC [7]: 5000 µg/mL (≈ 34.2 mM)
- MIC [8]: 5000 µg/mL (≈ 34.2 mM)
- MIC [9]: 2500 µg/mL (≈ 17.1 mM)
- MIC [10]: > 5000 µg/mL
- MIC [11]: > 5000 µg/mL
- MIC [12]: 5000 µg/mL (≈ 34.2 mM)
